Usually melting point stands for the temperature, or range, at which the solid turns liquid. The Ki is the dissociation constant of the complex between target and ligand, obtained from inhibition or displacement.

Counter-ions that a name gives are not always drawn.

Series [1] addresses T1, recombinant hMAO-B (Homo sapiens, UniProt P27338).
T1 construct: purchased Fluka-Sigma-Aldrich s.r.l; (Italy); host or cells: Baculovirus infected BT1 cells
T1 sequence (P27338 1-520): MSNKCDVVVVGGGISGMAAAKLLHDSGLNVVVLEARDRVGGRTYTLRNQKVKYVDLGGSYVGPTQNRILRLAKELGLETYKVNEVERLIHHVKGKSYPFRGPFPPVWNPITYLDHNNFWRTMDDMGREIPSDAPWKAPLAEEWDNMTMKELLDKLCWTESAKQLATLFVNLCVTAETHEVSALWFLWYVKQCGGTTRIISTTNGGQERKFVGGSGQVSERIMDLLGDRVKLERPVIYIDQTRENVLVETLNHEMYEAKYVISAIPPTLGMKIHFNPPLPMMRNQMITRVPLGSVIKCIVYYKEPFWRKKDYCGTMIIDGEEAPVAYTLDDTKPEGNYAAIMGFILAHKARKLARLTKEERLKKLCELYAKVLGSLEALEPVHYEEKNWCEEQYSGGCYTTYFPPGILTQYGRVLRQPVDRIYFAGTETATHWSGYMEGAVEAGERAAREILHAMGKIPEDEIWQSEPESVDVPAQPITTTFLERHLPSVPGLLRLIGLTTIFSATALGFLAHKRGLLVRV
The experiment in a line: hMAO-B activity assay (kynuramine, fluorimetric). The series is classed as biochemical. To be noted: for SI (selectivity index): calculated as hMAO-A Ki/hMAO-B Ki; for Ki: kynuramine [S] = 10 µM, pH 7.4, 37 °C, mean ± S.D., read-out: hMAO-B Ki. The procedure:
(§1) Human recombinant hMAO-A and hMAO-B expressed in Baculovirus infected BT1 cells (5 mg/mL) and horseradish peroxidases were purchased from Fluka-Sigma-Aldrich s.r.l. (Italy). A Cary Eclipse fluorimeter (Varian Inc., Palo Alto, CA, USA) was used for fluorescence measurements. […] At first, the peroxidase-coupled continuous assay that detect the H2O2 generation rate was considered. It uses the Amplex Red reagent as the fluorogenic substrate for horseradish peroxidase.
(§2) By applying this method, hMAO activity assays were performed in K/Pi 0.1 M, EDTA 1 mM (total volume: 200 μL; pH 7.4, T = 37 °C), in the presence and in absence of various concentrations of the different compounds (0.2–20 μM and 2–50 μM in the case of hMAO–B and hMAO-A, respectively).
(§3) MAOs stock solutions were diluted with assay buffer in the presence or absence of the tested compound to obtain a final concentration of 0.005 mg/mL for MAO-A and 0.010 mg/mL for MAO-B; then, kynuramine (10–300 μM final concentration) was added to the assay solution. After 45–60 min of incubation at 37 °C, the reaction was stopped by the addition of 2 M NaOH (80 μL) and 480 μL of distilled water. Kynuramine deaminated by MAO spontaneously cyclizes to provide 4-hydroxyquinoline, the amount of which was determined by the fluorescence intensity of the peak of its emission spectra (λexc = 330 nm and λem 330–530 nm). Then, the rate of reaction was calculated using a specific calibration curve (in the presence of the same amount of the tested compound) built with the standard 4-hydroxyquinoline.
(§4) Under these experimental conditions, the Michaelis–Menten equation for rate of reaction, can be simplified as follows: V ≈ (Vmax/KM) [E]0[S]0 [49]. In the presence of an inhibitor, one or both the kinetic parameters, KM and Vmax, might be affected by its presence, depending on the inhibition mechanism. In particular, in the presence of a reversible inhibitor, both the kinetic parameters could be affected, and the apparent kinetic parameter would then become: KM I = KM,0 (1 + [I]/Ki)/(1 + [I]/(αKi)), and VmaxI = Vmax0/(1 + [I]/(αKi)), where α is the factor indicating how much the dissociation constant of the enzyme-substrate-I complex is different from that of the enzyme–I complex (also named Ki). Consequently, the ratio of the initial rate of reaction in the absence (Vo) and in the presence (VI) of the tested compound (Vo/VI) can be simplified to the ratio of (Vmax/KM)o/(Vmax/KM)I ≈ (1 + [I]/Ki).
(§5) To study the mechanism of inhibition, the steady-state kinetic parameters (Vmax and Km) of MAO-A and MAO-B were determined by performing experiments at different substrate concentrations and in the absence and presence of different concentrations of the tested compound. Vmax and Km were calculated by fitting the Michaelis–Menten equation to the experimental data (initial rate of reactions vs. substrate concentrations), with Sigma Plot software, version 9.0 (Jandel Scientific, San Rafael, CA, USA).

In series [2] the target is T2, recombinant hMAO-A (Homo sapiens, UniProt P21397).
T2 construct: purchased Fluka-Sigma-Aldrich s.r.l; (Italy); host or cells: Baculovirus infected BT1 cells
T2 sequence (P21397 1-527): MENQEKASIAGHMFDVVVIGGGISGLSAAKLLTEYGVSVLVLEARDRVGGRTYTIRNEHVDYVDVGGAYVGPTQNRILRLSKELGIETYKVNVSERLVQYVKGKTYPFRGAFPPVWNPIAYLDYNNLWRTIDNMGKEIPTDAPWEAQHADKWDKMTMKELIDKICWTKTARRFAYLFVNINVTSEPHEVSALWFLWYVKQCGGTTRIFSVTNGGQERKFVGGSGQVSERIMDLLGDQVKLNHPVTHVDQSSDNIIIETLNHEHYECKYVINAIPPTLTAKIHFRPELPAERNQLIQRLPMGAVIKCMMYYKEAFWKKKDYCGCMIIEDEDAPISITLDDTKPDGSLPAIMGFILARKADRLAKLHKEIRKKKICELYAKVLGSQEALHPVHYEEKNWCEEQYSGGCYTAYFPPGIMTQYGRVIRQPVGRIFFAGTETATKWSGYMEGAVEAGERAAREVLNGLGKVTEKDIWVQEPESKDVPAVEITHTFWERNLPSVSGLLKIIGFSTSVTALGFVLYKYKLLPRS
The experiment in a line: hMAO-A activity assay (kynuramine, fluorimetric). The series is classed as biochemical. The settings on record: kynuramine [S] = 10 µM, pH 7.4, 37 °C; mean ± S.D.; read-out: hMAO-A Ki. The procedure:
as §1, §2, §3, §4, §5

The subject of series [3] is ROS production in HepG2 cells. As to the kind of experiment: Intracellular ROS generation rate (DCF-DA). To be noted: 5 µM, antimycin A 10 µM, 30 min. The series is classed as cell-based, human. How it is done: Thus, on the basis of the hMAO-B inhibitory potency and on the Nrf2 nuclear translocation results, the most promising compounds 2 and 3 were chosen for the evaluation of their antioxidant activity in the human hepatic HepG2 cells, a valuable cellular system to assess antioxidant properties of the compounds [43, 44]. CAPE and pioglitazone were also tested as reference compounds. HepG2 cells were pre-loaded with dichlorofluorescein diacetate (DCF-DA), a fluorescent probe to detect ROS generation. […] Immediately, antimycin A (10 µM), an inhibitor of the complex III of the mitochondrial electron transport chain, was also added as an ROS inducer. The oxidation rate of DCF, that is, the generation rate of ROS, was detected for 30 min, and for each sample, the corresponding control was also run.
HepG2 cells (human hepatocellular carcinoma) were purchased from the American Type Culture Collection (ATCC HB-8065). Cells were grown in MEM (M0894, Merck Life Sciences S.r.l., Milan, Italy) supplemented with 2.2 g/L NaHCO3 (S5761, Merck Life Sciences S.r.l., Milan, Italy), 100 U/mL penicillin, 100 μg/mL streptomycin and 0.25 μg/mL amphotericin B (A5955, Merck Life Sciences S.r.l., Milan, Italy) and 10% foetal calf serum (F7524, Merck Life Sciences S.r.l., Milan, Italy). Cells were cultured at 37 °C in a humidified atmosphere incubator containing 5% carbon dioxide in air.
The intracellular production of ROS was detected via a fluorometric method using 2′,7′-dichlorofluorescein diacetate (D6883, Merck Life Sciences S.r.l., Milan, Italy) as probe. HepG2 cells (6 × 10^3/well) were seeded into a 96-well culture plate in 200 µL of a complete growth medium and incubated for 48 h in standard conditions. The medium was then removed, and cells were washed with 5 mM of PBS–glucose. Then, cells were loaded with 10 μM of 2′,7′-dichlorofluorescein diacetate in 5 mM of PBS–glucose at 37 °C in the dark for 20 min, washed with 5 mM of PBS–glucose, treated with the test compounds at indicated concentrations in 5 mM of PBS–glucose and then analysed. Fluorescence intensity was recorded for 30 min at λemx = 485 nm and λem = 527 nm, using a Victor X3 Multilabel plate reader (Perkin Elmer). The rate of ROS generation was calculated relative to untreated cells (controls) after subtraction of autofluorescence value. Results were presented as the mean values of at least three independent experiments performed with six replicates.

Series [4] relates to Nrf2 nuclear translocation in SH-SY5Y cells. As to the kind of experiment: Nrf2 nuclear translocation (Western blot of nuclear extracts). The series is classed as cell-based, human. To be noted: 5 μM, 3 h. From the text:
In physiological conditions, the repressor Keap1 traps Nrf2 at the cytosolic level, preventing the activation of Nrf2 pathway. The disruption of Keap1–Nrf2 interaction allows for Nrf2 nuclear translocation, thus resulting in the transcriptional activation of its target cytoprotective genes. […] We and others have previously developed several compounds bearing caffeic and ferulic fragments able to activate Nrf2 in terms of the up-regulation of Nrf2 expression, translocation into the nucleus and induction of the Nrf2-dependent defensive genes, with (pro)electrophilic features emerging as key players. Herein, to analyse the effect of the new molecules on the Nrf2 downstream cascade, the ability of compounds 1–5 to increase Nrf2 nuclear translocation was preliminary evaluated as a pivotal step in Nrf2 signalling activation (Figure 6). Based on MAO-B inhibitory potency and cell toxicity assay, compounds were studied in SH-SY5Y human neuroblastoma cells at the concentration of 5 μM. Given the high structural analogy with our derivatives, we selected the well-known Nrf2 inducer CAPE [37, 38] as the reference compound, and verified its ability to induce Nrf2 nuclear translocation at different concentrations, ranging from 5 µM to 50 µM in our experimental model (Figure S6). Nrf2 nuclear content was assessed via Western blot analysis. […] Consistently, data from literature highlight discrepancies about pioglitazone-mediated Nrf2 activation, indicating its ability to activate Nrf2 in longer timeframes and different in vitro and in vivo experimental conditions. […] The preliminary docking performed on human Keap-1 confirms the excellent positioning of compound 2 within the BTB domain pocket, where cysteine 151 is located (see Figure S5). […] Particularly, all these new molecules hold the characteristic (pro)electrophilic fragments, which however, in this case, resulted to be insufficient to activate Nrf2, as reported for other ferulic and caffeic derivatives. In this regard, optimal target interaction might play a major role, but further biological investigations are needed to fully clarify the mechanism of Nrf2 activation and the effect on the downstream expression of cytoprotective genes.
SH-SY5Y cells (5 × 106) were seeded in […] dishes and treated for 3 h with 5 μM compounds; afterward, the medium was removed, and cells were washed twice with ice-cold PBS. Cells were subsequently homogenized 15 times using a glass−glass Dounce homogenizer in 0.32 M sucrose, buffered with 20 mM Tris- HCl (pH 7.4), containing 2 mM EDTA, 0.5 mM EGTA, 50 mM β-mercaptoethanol and 20 μg/mL leupeptin, apotrinin and pepstatin. The homogenate was centrifuged at 300× g for 5 min to obtain the nuclear fraction. An aliquot of the nuclear fraction was used for protein assay via the Bradford method, whereas the remaining was boiled for 5 min after dilution with sample buffer and subjected to polyacrylamide gel electrophoresis and immunoblotting, as described.
Background: In western blotting, separated proteins are transferred to a membrane and probed.

For the compound `COC(=O)/C=C/C(=O)Oc1ccc(CC2SC(=O)NC2=O)cc1` (centres unmarked) (as salt: fumarate) [Compound 1, 4-((2,4-Dioxothiazolidin-5-yl)methyl)phenyl Methyl Fumarate], the melting point lay in the range of 150 to 151 °C.

Consider `COC(=O)/C=C/C(=O)Oc1ccc(CC2SC(=O)NC2=O)cc1` (centres unmarked) [Compound 1, 4-((2,4-Dioxothiazolidin-5-yl)methyl)phenyl Methyl Fumarate], for which, in series [1], the “decrease in hMAO-B inhibitory potency in comparison with pioglitazone” value worked out at 50 times, the “SI (selectivity index)” value was 8.0 and the Ki was 3.14 ± 0.2 µM. Moreover, the Ki in series [2] amounted to 25 ± 4 µM.

In turn, `COc1cc(/C=C/C(=O)Oc2ccc(CC3SC(=O)NC3=O)cc2)ccc1O` (centres unmarked) [Compound 3, 4-((2,4-Dioxothiazolidin-5-yl)methyl)phenyl (E)-3-(4-hydroxy-3-methoxyphenyl)acrylate] registered a melting point of 155 to 156 °C. In series [1], the “SI (selectivity index)” value is 32.3 and the Ki was 0.99 ± 0.15 µM. Further, the Ki in series [2] was found to be 32 ± 2 µM. Moreover, the “effect on antimycin A-induced ROS” value in series [3] is on record as “almost abolish the effect of antimycin A stimulus”.

Take `O=C(/C=C/c1ccc(O)c(O)c1)Nc1ccc(CC2SC(=O)NC2=O)cc1` (centres unmarked) [Compound 4, (E)-3-(3,4-Dihydroxyphenyl)-N-(4-((2,4-dioxothiazolidin-5-yl)methyl)phenyl)acrylamide]: the melting point was 148 to 149 °C. For the same compound, in series [1], the “SI (selectivity index)” value was 15.6 and the Ki is 2.5 ± 1 µM. Further, the Ki in series [2] turned out to be 39 ± 5 µM. Besides, in series [4], the Nrf2 nuclear translocation result was “promoted Nrf2 translocation at a lower extent”.

The compound `COc1cc(/C=C/C(=O)Nc2ccc(CC3SC(=O)NC3=O)cc2)ccc1O` (centres unmarked) [Compound 5, (E)-N-(4-((2,4-Dioxothiazolidin-5-yl)methyl)phenyl)-3-(4-hydroxy-3-methoxyphenyl)acrylamide] came in with a melting point of 151 to 152 °C. In addition, in series [1], the “SI (selectivity index)” value was 14.2 and the Ki stood at 3.3 ± 1 µM. Also, in series [2], the Ki stood at 47 ± 4 µM. Moreover, the Nrf2 nuclear translocation result in series [4] is listed as “promoted Nrf2 translocation at a lower extent”.

These data come from paper PMC10650714, “Double Attack to Oxidative Stress in Neurodegenerative Disorders: MAO-B and Nrf2 as Elected Targets” (Molecules, 2023).
